Each structure is given as a SMILES string. Where two headings read alike, the source gives them in different places.

The target in this test is recombinant eIF4E (Homo sapiens (Human), UniProt P06730). Nature of the test: Fluorescence polarization competition assay for eIF4E binding potency. A digest of the protocol: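 IC50 values reflect 50% displacement of 20 nM EDA-m7GDP-ATTO-550 from 75 nM eIF4E, measured by fluorescence polarization after 30 min at room temperature. Buffer: 20 mM Tris pH 7.5, 100 mM NaCl, 1 mM DTT, 0.02% Tween-20; 1% DMSO.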
recombinant eIF4E, sequence (P06730 whole entry): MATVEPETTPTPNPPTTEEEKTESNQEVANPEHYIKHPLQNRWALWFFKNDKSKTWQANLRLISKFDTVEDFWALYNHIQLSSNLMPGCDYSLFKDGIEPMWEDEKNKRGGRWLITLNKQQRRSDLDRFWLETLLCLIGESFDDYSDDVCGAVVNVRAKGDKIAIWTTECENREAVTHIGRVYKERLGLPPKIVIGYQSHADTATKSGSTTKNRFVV

The mark [1] stands for this setting: inhibition of eIF4E/EDA-m7GDP-ATTO-550 binding, calculated IC50 values, Table 4B, read-out: IC50.
[2] abbreviates: fluorescence polarization competition, 75 nM recombinant eIF4E, 20 nM EDA-m7GDP-ATTO-550, IC50 class, read-out: elF4E FP.
The mark [3] stands for this setting: inhibition of eIF4E/EDA-m7GDP-ATTO-550 binding by 50%, Table 4B calculated values, read-out: IC50.

With `Cc1nc2cnc(N3CCN(C4(C)CC(F)(F)C4)CC3)c(C#N)c2c(=O)n1CC#Cc1ccc(Cl)cc1-c1ccnc2c(C(=O)O)csc12` [compound 1493], under setting [1], the IC50 was 6.83 nM.
Turning to `Cc1cc(-c2cc(Cl)ccc2OCCn2c(C)nc3cc(C(F)(F)F)c(N(C)C)c(C#N)c3c2=O)c2scc(C(=O)O)c2n1` [compound 1619], the IC50 under setting [1] was 31.6 nM.
On the same count and under the same terms, the figure for `Cc1nc2cnc(N3CCN(C)CC3)c(C#N)c2c(=O)n1CCOc1ccc(Cl)cc1-c1ccnc2ccsc12` [compound 1257] is 52.5 nM.
Regarding `N#Cc1cc2c(=O)n(CCOc3ccc(Cl)cc3-c3cc(C(=O)O)cs3)cnc2cn1` [compound 83], the IC50 is, setting by setting: under setting [2], over 1000 nM; under setting [3], 2560 nM.
The corresponding values for `Cc1nc2ccc(OCCN(C)C)c(C#N)c2c(=O)n1CCOc1ccc(Cl)cc1-c1ccnc2c(C(=O)O)csc12` [compound 457] are under 50 nM and 11.2 nM.
For the molecule `Cc1nc2cc(Cl)c(Cl)c(C#N)c2c(=O)n1C/C=C/c1ccc(Cl)cc1-c1ccnc2c(C(=O)O)csc12` [compound 256], the IC50 is, setting by setting: under setting [2], 50 to 1000 nM; under setting [3], 104 nM.
As to `Cc1nc2cnc(C3(F)CCN(C)CC3)c(C#N)c2c(=O)n1CCOc1ccc(Cl)cc1-c1ccnc2c(C(=O)O)csc12` [compound 1264], the IC50 under setting [1] is 12.4 nM.
Same read-out and setting: with `Cc1nc2cnc(N(C)[C@@H]3CC[C@H](N(C)CC(F)F)C3)c(C#N)c2c(=O)n1CC#Cc1ccc(Cl)cc1-c1ccnc2c(C(=O)O)csc12` [compound 1897] the figure was 13.1 nM.
On the same count and under the same terms, the figure for `Cc1nc2cc3c(c(C#N)c2c(=O)n1CCOc1ccc(Cl)cc1-c1ccnc2c(C(=O)O)csc12)S(=O)(=O)N(C)CC3` [compound 1954] is 17 nM.
Same read-out and setting: with `Cc1nc2cnc(N(C)C3CCN(CCOC(F)F)CC3)c(C#N)c2c(=O)n1CC#Cc1ccc(Cl)cc1-c1ccnc2c(C(=O)O)csc12` [compound 1503] the figure was 19.2 nM.
As for `Cc1cc(-c2cc(Cl)ccc2OCCn2c(C)nc3cc(C(F)(F)F)c(N4CC(=O)C4)nc3c2=O)c2scc(C(=O)O)c2n1` [compound 796], the IC50 under setting [2] is under 50 nM and the IC50 under setting [3] was 3.27 nM.
For `Cc1cc(-c2cc(Cl)ccc2OCCn2c(C)nc3cc(C(F)(F)F)c(-c4ccccc4C#N)nc3c2=O)c2scc(C(=O)O)c2n1` [345a], the IC50 under setting [3] is 43.2 nM.
Take `Cc1nc2c(C#N)c(C(F)(F)F)cc(C#N)c2c(=O)n1CCOc1ccc(Cl)cc1-c1ccnc2c(C(=O)O)csc12` [compound 210]: the IC50 was 50 to 1000 nM under setting [2] and 91 nM under setting [3].
The corresponding values for `Cc1nc2cnc(N3CCN(C)CC3)c(C#N)c2c(=O)n1CC#Cc1ccc(Cl)cc1-c1ccnc2c(C(=O)O)csc12` [compound 842] are under 50 nM and 20.9 nM.
The corresponding values for `Cc1nc2c(F)cc(S(C)(=O)=O)c(C#N)c2c(=O)n1CCOc1ccc(Cl)cc1-c1ccnc2c(C(=O)O)csc12` [compound 293] are 50 to 1000 nM and 63.9 nM.
For the molecule `Cc1cc(-c2cc(Cl)ccc2OCCn2c(C)nc3cc(C(F)(F)F)c(C4CCNCC4)cc3c2=O)c2sc(C)c(C(=O)O)c2n1` [compound 877], the IC50 under setting [2] was in the range of 50 to 1000 nM and the IC50 under setting [3] was 234 nM.
With `Cc1cc(-c2cc(Cl)ccc2OCCn2c(C)nc3cc(C(F)(F)F)c(-c4cnc(Cl)cc4F)c(C#N)c3c2=O)c2scc(C(=O)O)c2n1` [compound 1384], the IC50 under setting [1] was 6.86 nM.
For `CC(=O)Nc1cc2c(=O)n(CCOc3ccc(Cl)cc3-c3cccc(C(=O)O)c3)cnc2cn1` [compound 131], the IC50 is 50 to 1000 nM under setting [2] and 600 nM under setting [3].
With `Cc1nc2cc(C(F)(F)F)c(N3CCN(CCC(F)(F)F)CC3)c(C#N)c2c(=O)n1CCOc1ccc(Cl)cc1-c1ccnc2c(C(=O)O)csc12` [compound 1293], the IC50 under setting [1] is 35.1 nM.
For the molecule `COCCC(CCOC)N(C)c1ncc2nc(C)n(CC#Cc3ccc(Cl)cc3-c3ccnc4c(C(=O)O)csc34)c(=O)c2c1C#N` [1173b], the IC50 under setting [3] was 13 nM.
As to `Cc1nc2cc(C(F)(F)F)cc(C#N)c2c(=O)n1CCOc1ccc(Cl)cc1C1CCNC(C(=O)O)C1` (centres unmarked) [compound 535], the IC50 by setting is: under setting [2], 50 to 1000 nM; under setting [3], 244 nM.
On to `Cc1nc2cnc(N3CCC(N4CC(OC(F)F)C4)CC3)c(C#N)c2c(=O)n1CC#Cc1ccc(Cl)cc1-c1ccnc2c(C(=O)O)csc12` [compound 1187], for which the IC50 under setting [2] is under 50 nM.
Turning to `Cc1nc2cc(F)c(C#N)c(C#N)c2c(=O)n1CCOc1ccc(Cl)cc1-c1ccnc2c(C(=O)O)csc12` [compound 276], the IC50 was under 50 nM under setting [2] and 22.8 nM under setting [3].
Take `N#Cc1cccc2nc(C(F)F)n(CCOc3ccc(Cl)cc3-c3ccnc4c(C(=O)O)scc34)c(=O)c12` [compound 2035]: the IC50 under setting [1] was 72.3 nM.
In the case of `Cc1ccc(C(=O)O)c2nccc(-c3cc(Cl)ccc3OCCn3cnc4cncc(C#N)c4c3=O)c12` [compound 45], the IC50 by setting is: under setting [2], over 1000 nM; under setting [3], 2890 nM.
Regarding `O=C(O)c1cccc(-c2cc(Cl)ccc2OCCn2c(C(F)(F)F)nc3cnc(Cl)cc3c2=O)c1` [compound 2007], under setting [1], the IC50 was over 300000 nM.
As to `Cc1cc(-c2cc(Cl)ccc2OCCn2c(C)nc3cc(C(F)(F)F)c(C4=CCOCC4)c(C#N)c3c2=O)c2scc(C(=O)O)c2n1` [compound 429], the IC50 under setting [2] was under 50 nM.
Consider `COC(=O)c1csc2c(-c3cc(Cl)ccc3C#CCn3c(C)nc4cnc(N5CCN(CCOC(F)(F)F)CC5)c(C#N)c4c3=O)ccnc12` [compound 1104], for which the IC50 was 50 to 1000 nM under setting [2] and 631 nM under setting [3].
On to `Cc1nc2cnc(N(C)C3CCN(C)C(C(F)F)C3)c(C#N)c2c(=O)n1CCOc1ccc(Cl)cc1-c1ccnc2c(C(=O)O)csc12` (centres unmarked) [compound 866], for which the IC50 reads like this: under setting [2], under 50 nM; under setting [3], 16.8 nM.
For the molecule `CCN(c1ncc2nc(C)n(CC#Cc3ccc(Cl)cc3-c3ccnc4c(C(=O)NS(C)(=O)=O)csc34)c(=O)c2c1C#N)C1CCN([C@H]2C[C@@H](OC(F)(F)F)C2)CC1` [compound 1776], under setting [1], the IC50 was 3.65 nM.
The same measure, in the same setting: with `Cc1nc2cnc(N3CC4(CNC4)C3)c(C#N)c2c(=O)n1CC#Cc1ccc(Cl)cc1-c1ccnc2c(C(=O)O)csc12` [compound 1633] the figure was 52.6 nM.
For the molecule `Cc1nc2cc(C(F)(F)F)cc(C#N)c2c(=O)n1CCOc1ccncc1-c1ccnc2c(C(=O)O)csc12` [compound 285], the IC50 is, setting by setting: under setting [2], 50 to 1000 nM; under setting [3], 72.5 nM.
With `Cc1nc2ccc(S(=O)(=O)N3CCCCC3)c(C#N)c2c(=O)n1CCOc1ccc(Cl)cc1-c1ccnc2c(C(=O)O)csc12` [compound 251], the IC50 under setting [2] was under 50 nM.
As for `Cc1nc2cnc(N3CCN(C4(CC(F)F)CC4)CC3)c(C#N)c2c(=O)n1CCOc1ccc(Cl)cc1-c1ccnc2c(C(=O)O)csc12` [compound 1643], the IC50 under setting [1] was 18.8 nM.
In the case of `Cc1nc2cnc(N(C)C3CCN([C@H]4C[C@@H](OC(F)F)C4)CC3)c(C#N)c2c(=O)n1CC#Cc1ccc(Cl)cc1-c1ccnc2c(C(=O)O)csc12` [compound 1172], the IC50 is under 50 nM under setting [2] and 14.2 nM under setting [3].
As to `CCN(c1ncc2nc(C)n(CC#Cc3ccc(Cl)cc3-c3ccnc4c(C(=O)NS(=O)(=O)CC#N)csc34)c(=O)c2c1C#N)C1CCN(C2COC2)CC1` [compound 1735], under setting [1], the IC50 was 33.6 nM.
As for `Cc1cc(-c2cc(Cl)ccc2OCCn2c(C)nc3cc(C(F)(F)F)c(-c4ccccc4)nc3c2=O)c2scc(C(=O)O)c2n1` [compound 467], the IC50 under setting [2] was under 50 nM.

(Values after patent publication US11286268B1, “EIF4E-inhibiting compounds and methods” (EFFECTOR THERAPEUTICS, INC., priority 2019, dated 2022).)
